Measurements taken from patent publication US20250296934A1, “AZEPINOINDOLES AND METHODS OF PREPARATION THEREOF” (priority 2022, published 2025).
Where two headings read alike, the source gives them in different places.

Experiments:
mice = assay: Head Twitch Response (HTR) in mice; assay type: in vivo; settings: Mus musculus, 1 h, measured over a 60 minute interval
Protocol: Head Twitch Response (HTR) was assessed using a head-mounted neodymium magnet and a magnetometer detection coil, as described in Halberstadt et al., Psychopharmacology (Berl.), 2013, 227 (4): 727-739. Table 8 below summarizes the ED50 in head twitch (as measured over a 60 minute interval) in mice as a result of Compound 1 as compared to psilocybin.

[1] = system: SafetyScreen44™ panel hits; assay: Follow up functional assays of SafetyScreen44 hits; design: species or system human
Protocol: Various compounds disclosed herein were subjected to an in vitro SafetyScreen44™ panel for identifying off-target activity. Compounds of interest that are identified in the panel are then tested in follow up functional assays to identify if such compounds have a significant off-target risk. […] It is predicted that other compounds share similar characteristics with compound 1 and also lack of the off-target activity.

5-HT2C [2] = target: T1, 5-HT2C (Homo sapiens, UniProt P28335); assay: cell-based; assay type: cell-based; design: expressed in transfected cells; host or cells: HEK293T
T1 sequence (P28335 33-458): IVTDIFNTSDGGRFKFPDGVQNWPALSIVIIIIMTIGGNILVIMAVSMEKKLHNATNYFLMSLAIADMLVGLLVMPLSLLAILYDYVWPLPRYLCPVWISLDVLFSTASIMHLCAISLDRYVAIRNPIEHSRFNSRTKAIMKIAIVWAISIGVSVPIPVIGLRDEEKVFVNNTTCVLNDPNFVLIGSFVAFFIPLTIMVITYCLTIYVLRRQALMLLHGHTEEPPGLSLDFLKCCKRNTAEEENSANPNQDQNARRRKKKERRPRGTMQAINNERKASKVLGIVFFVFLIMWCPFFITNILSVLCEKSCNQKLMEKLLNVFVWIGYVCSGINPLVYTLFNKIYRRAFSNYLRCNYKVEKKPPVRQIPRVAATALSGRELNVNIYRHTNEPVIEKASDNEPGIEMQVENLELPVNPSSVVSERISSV

5-HT7 = 5-HT7 (Homo sapiens, UniProt P34969); assay: 5-HT receptor activity (Table 3), 5-HT7; assay type: cell-based
5-HT7, sequence (P34969 whole entry, species assumed): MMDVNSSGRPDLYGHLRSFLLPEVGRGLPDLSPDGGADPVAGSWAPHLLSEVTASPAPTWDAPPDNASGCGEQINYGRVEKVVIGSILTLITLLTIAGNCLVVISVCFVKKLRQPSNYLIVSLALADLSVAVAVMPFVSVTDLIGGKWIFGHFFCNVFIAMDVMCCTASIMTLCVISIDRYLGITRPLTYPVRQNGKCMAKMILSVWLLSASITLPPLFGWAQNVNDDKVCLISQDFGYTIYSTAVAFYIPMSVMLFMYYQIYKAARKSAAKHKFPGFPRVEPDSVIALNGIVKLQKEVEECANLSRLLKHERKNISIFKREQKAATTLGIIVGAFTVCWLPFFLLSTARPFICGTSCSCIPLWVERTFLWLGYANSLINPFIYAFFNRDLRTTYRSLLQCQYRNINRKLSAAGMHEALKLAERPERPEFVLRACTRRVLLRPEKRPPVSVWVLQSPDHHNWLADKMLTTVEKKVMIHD

[3] = In vitro hepatocyte clearance, human; assay type: in vitro ADME; settings: Human hepatocytes
Protocol: (§1) Additional experimentation was performed on compounds 1, W5, and A93. Table 6a, 6b and 6c summarize, among other things, the anticipated hepatic clearance of compounds 1, W5 and A93 respectively, in various species, as specified in Table 6a, 6b and 6c and as determined by calculating the in vitro hepatocyte clearance over time and scaling such rate with such species' hepatocyte count and the anticipated liver blood flow rate in such species.

hepatocyte [4] = assay: In vitro hepatocyte clearance, human; assay type: in vitro ADME; settings: Human
Protocol: as §1

5-HT1F = target: T2, 5-HT1F (Homo sapiens, UniProt P30939); assay: 5-HT receptor activity (Table 3), 5-HT1F; assay type: cell-based
T2 sequence (P30939 1-366): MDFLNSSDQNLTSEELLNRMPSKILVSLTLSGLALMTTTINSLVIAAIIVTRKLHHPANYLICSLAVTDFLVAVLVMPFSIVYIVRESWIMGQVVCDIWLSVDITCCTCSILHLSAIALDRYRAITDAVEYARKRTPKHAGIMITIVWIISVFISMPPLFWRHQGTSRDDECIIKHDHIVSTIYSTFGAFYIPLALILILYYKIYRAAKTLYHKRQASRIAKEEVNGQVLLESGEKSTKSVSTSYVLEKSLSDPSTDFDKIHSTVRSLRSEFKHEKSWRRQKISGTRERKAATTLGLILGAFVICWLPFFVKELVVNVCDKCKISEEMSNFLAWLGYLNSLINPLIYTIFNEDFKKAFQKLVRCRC

[5] = In vitro hepatocyte clearance, mouse; assay type: in vitro ADME; settings: Mouse hepatocytes
Protocol: as §1

hepatocyte [6] = assay: In vitro hepatocyte clearance, mouse; assay type: in vitro ADME; settings: Mouse
Protocol: as §1

[7] = In vitro hepatocyte clearance, monkey; assay type: in vitro ADME; settings: Monkey hepatocytes
Protocol: as §1

hepatocyte [8] = assay: In vitro hepatocyte clearance, monkey; assay type: in vitro ADME; settings: Monkey
Protocol: as §1

5-HT2C [9] = target: T1, 5-HT2C; assay: cell-based; settings: Table 3

## Cc1ccc(O)c2c3c([nH]c12)CCNCC3 [Cpd #1 (Pharm-136), 7-Methyl-1,2,3,4,5,6-hexahydroazepino[4,5-b]indol-10-ol]
TA98; TA98 + S9, 1.0E−04M
  Count (n. of wells): 0 n. of wells
  Significance: Negative
TA98; TA98 + S9, 1.0E−05M
  Count (n. of wells): 3 n. of wells
  Significance: Negative
TA98; TA98 + S9, 5.0E−05M
  Count (n. of wells): 0 n. of wells
  Significance: Negative
TA98; TA98 + S9, 5.0E−06M
  Count (n. of wells): 9 n. of wells
  Significance: Weak positive
TA98; TA98 − S9, 1.0E−04M
  Count (n. of wells): 0 n. of wells
  Significance: Negative
TA98; TA98 − S9, 1.0E−05M
  Count (n. of wells): 0 n. of wells
  Significance: Negative
TA98; TA98 − S9, 5.0E−05M
  Count (n. of wells): 0 n. of wells
  Significance: Negative
TA98; TA98 − S9, 5.0E−06M
  Count (n. of wells): 1 n. of wells
  Significance: Negative
mice
  ED50: 3.6 mg/kg
[1]
  Follow up studies: No significant off-
[1]; listed as compound 1
  Follow up studies: does not possess significant off-target activity
TA100; TA100 + S9, 1.0E−04M
  Count (n. of wells): 0 n. of wells
  Significance: Negative
TA100; TA100 + S9, 1.0E−05M
  Count (n. of wells): 8 n. of wells
  Significance: Negative
TA100; TA100 + S9, 5.0E−05M
  Count (n. of wells): 1 n. of wells
  Significance: Negative
TA100; TA100 + S9, 5.0E−06M
  Count (n. of wells): 13 n. of wells
  Significance: Negative
TA100; TA100 − S9, 1.0E−04M
  Count (n. of wells): 0 n. of wells
  Significance: Negative
TA100; TA100 − S9, 1.0E−05M
  Count (n. of wells): 1 n. of wells
  Significance: Negative
TA100; TA100 − S9, 5.0E−05M
  Count (n. of wells): 0 n. of wells
  Significance: Negative
TA100; TA100 − S9, 5.0E−06M
  Count (n. of wells): 2 n. of wells
  Significance: Negative
5-HT2C [2]; Gq dissociation BRET, HEK293T
  EC50: 0.5 nM
5-HT2C [2]; normalized to % 5-HT stimulation
  5-HT2C BRET Eff: 101%
5-HT7
  EC50: Not active
[3]
  hepatocyte CLint: < 2.71 µL/min/1e6 cells
[3]; read-out: In vitro T1/2
  half-life: > 8.53 h
[3]; read-out: Scale-up Clint
  CLint scaled: < 6.89 mL/min/kg
Hepatocyte [4]
  Hepatic Extraction Ratio (E): <0.25
  Predicted hepatic CL: <5.17 mL/min/kg
5-HT1F
  EC50: 460 nM
  Eff: 56%
[5]
  hepatocyte CLint: 33 µL/min/1e6 cells
[5]; read-out: In vitro T1/2
  half-life: 0.703 h
[5]; read-out: Scale-up Clint
  CLint scaled: 389 mL/min/kg
Hepatocyte [6]
  Hepatic Extraction Ratio (E): 0.81
  Predicted hepatic CL: 73.10 mL/min/kg
[7]
  hepatocyte CLint: < 2.71 µL/min/1e6 cells
[7]; read-out: In vitro T1/2
  half-life: > 8.53 h
[7]; read-out: Scale-up Clint
  CLint scaled: < 9.75 mL/min/kg
Hepatocyte [8]
  Hepatic Extraction Ratio (E): <0.18
  Predicted hepatic CL: <7.97 mL/min/kg
5-HT2C [9]
  EC50: 0.5 nM
  Eff: 95%
